Literature values as cited in US20260174646A1, “Topical detergent composition comprising ascorbyl glucoside and ascorbyl palmitat” (Mitochon S.r.l., priority 2022, published 2026).

CCCCCCCCCCCCCCCC(=O)OC[C@H](O)[C@H]1OC(=O)C(O)=C1O [ascorbyl palmitate, Ascorbyl palmitate]
ability to release ascorbic acid into the epidermis (refs. [8,9]): reduced ability to release ascorbic acid into the epidermis | tissue levels of ascorbic acid when applied to the skin (topical application, ref. [7]): incapable of increasing tissue levels of ascorbic acid
